Tests used:
cocaine intake = conditions: monkeys; cited from earlier work
hD4R = hD4R (Homo sapiens (Human), UniProt P21917); test: [3H]N-methylspiperone competition binding, D4R; conditions: for Ki: HEK 293 membranes, [3H]N-methylspiperone, read-out: Ki (nM) ± SEM D4R; for Selectivity D2R/D4R / Selectivity D3R/D4R: ratio of Ki values
hD2R = hD2R (Homo sapiens (Human), UniProt P14416); test: [3H]N-methylspiperone competition binding, D2R; conditions: HEK 293 membranes, read-out: Ki (nM) ± SEM D2R
Sequence of hD2R (P14416 whole entry): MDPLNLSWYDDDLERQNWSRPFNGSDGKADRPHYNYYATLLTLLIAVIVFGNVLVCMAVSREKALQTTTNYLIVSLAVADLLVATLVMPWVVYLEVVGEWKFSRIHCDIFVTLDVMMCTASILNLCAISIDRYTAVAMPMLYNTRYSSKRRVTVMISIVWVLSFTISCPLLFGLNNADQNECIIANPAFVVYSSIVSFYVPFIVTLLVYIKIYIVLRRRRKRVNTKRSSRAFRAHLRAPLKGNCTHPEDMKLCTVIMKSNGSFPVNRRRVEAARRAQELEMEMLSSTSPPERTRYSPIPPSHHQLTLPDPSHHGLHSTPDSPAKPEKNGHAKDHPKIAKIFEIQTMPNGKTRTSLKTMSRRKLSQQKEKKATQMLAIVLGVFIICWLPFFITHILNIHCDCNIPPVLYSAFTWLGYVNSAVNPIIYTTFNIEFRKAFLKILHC

hD3R = hD3R (Homo sapiens (Human), UniProt P35462); conditions: read-out: Ki (nM) ± SEM D3R; HEK 293 membranes, [3H]N-methylspiperone
Sequence of hD3R (P35462 whole entry): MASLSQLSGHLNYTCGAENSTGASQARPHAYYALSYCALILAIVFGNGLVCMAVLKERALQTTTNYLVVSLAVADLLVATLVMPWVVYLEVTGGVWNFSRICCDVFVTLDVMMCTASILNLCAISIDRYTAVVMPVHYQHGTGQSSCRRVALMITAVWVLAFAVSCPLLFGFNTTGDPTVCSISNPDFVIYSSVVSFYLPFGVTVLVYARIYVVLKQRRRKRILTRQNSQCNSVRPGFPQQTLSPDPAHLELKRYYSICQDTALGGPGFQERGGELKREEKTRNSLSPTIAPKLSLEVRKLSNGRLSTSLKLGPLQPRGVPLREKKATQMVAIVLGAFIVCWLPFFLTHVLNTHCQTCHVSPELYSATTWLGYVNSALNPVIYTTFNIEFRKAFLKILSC

Sequence of hD4R (P21917 whole entry): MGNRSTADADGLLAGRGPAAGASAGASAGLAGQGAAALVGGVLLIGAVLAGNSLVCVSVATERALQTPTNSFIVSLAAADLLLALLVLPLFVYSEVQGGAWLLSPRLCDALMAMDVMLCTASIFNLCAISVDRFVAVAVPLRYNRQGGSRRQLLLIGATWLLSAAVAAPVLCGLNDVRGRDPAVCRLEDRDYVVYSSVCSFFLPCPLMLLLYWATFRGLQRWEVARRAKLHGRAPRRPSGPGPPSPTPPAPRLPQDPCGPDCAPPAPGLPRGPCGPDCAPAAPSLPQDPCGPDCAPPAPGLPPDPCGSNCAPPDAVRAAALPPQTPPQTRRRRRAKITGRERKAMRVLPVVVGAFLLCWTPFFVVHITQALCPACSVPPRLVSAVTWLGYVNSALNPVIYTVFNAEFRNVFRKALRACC

Row | Compound | cocaine intake (cocaine intake) | Ki (hD4R) [nM] | Selectivity D2R/D4R (hD4R) | Selectivity D3R/D4R (hD4R) | Ki (hD2R) [nM] | Ki (hD3R) [nM] | D4R binding selectivity vs. D2R and D3R (other D2-like receptors) (hD4R) [fold]
1 | c1ccc(-c2ncc(CN3CCN(c4ncccn4)CC3)[nH]2)cc1 [NGD-94-1] | reduced cocaine intake | – | – | – | – | – | –
2 | CCc1ccnc(C2CCN(CCCc3nc4ccccc4s3)CC2)c1 [Compound 19] | – | 5.89 | 2082 | 2838 | 12300 ± 7670 | 16700 ± 13300 | –
3 | Cc1cccc2nc(CCCN3CCC(c4ccccn4)CC3)sc12 [Compound 15] | – | 1.13 ± 0.27 | 15907 | 32756 | 18000 ± 15200 | 37100 ± 30300 | > 15907
4 | Ro10-5824 | reduced cocaine intake | – | – | – | – | – | –

Reference: US12122771B2, “Compounds useful for treatment of substance use disorder” (HIGH POINT UNIVERSITY, priority 2021, dated 2024)
